Results on two compounds are retold here after paper PMC5452050 (ACS Omega, 2017).

SMILES strings stand for the structures.

Series [1] in a line: In vivo pharmacokinetic study. Also noted: species or system mouse.
Series [2] has as its target IRAK1 (Homo sapiens, UniProt P51617). The experiment in a line: Kd determination. The format is binding.
Series [3] has as its target PRKCQ (Homo sapiens, UniProt Q04759). Briefly: Kd determination. The format is binding.
Series [4] deals with AURKA (Homo sapiens, UniProt O14965). The experiment in a line: Kd determination. The series is classed as binding.
Chain of AURKA (O14965 whole entry): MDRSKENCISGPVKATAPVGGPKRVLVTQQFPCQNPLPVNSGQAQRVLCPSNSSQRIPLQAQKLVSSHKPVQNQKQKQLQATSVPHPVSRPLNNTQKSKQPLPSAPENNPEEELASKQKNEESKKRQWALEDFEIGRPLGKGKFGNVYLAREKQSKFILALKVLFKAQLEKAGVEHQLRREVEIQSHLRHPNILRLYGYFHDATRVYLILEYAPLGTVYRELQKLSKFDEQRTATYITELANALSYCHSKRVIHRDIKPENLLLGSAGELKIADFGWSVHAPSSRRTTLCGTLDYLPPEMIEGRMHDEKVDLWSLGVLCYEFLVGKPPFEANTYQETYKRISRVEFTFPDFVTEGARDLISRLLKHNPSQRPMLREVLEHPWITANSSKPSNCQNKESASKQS
[5] abbreviates: female, C57BL/6, mouse, plasma, ip, 3 mg/kg.
[6] abbreviates: female, C57BL/6, mouse, plasma, ip, 5 mg/kg.
Setting [7] is: female, C57BL/6, mouse, plasma, ip, 10 mg/kg.

Chain of PRKCQ (Q04759 whole entry): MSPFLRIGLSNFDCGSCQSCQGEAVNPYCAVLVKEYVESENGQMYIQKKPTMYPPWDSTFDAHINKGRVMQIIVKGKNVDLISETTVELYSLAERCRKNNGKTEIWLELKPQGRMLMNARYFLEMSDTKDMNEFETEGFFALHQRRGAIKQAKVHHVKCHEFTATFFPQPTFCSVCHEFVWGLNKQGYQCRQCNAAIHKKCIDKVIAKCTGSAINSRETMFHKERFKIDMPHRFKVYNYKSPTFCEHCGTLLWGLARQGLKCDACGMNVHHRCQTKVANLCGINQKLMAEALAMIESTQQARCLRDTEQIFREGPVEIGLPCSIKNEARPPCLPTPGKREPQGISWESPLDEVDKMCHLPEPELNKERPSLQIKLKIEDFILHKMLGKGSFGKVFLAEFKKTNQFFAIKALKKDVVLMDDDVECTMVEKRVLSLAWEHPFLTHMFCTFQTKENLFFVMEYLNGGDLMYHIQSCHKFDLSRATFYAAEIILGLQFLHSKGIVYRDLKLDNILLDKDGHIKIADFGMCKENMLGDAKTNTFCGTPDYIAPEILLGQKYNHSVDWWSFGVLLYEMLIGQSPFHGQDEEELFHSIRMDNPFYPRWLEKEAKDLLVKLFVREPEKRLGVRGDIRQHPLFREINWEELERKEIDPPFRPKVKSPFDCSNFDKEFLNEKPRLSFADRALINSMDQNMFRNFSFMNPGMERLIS
Chain of IRAK1 (P51617 whole entry): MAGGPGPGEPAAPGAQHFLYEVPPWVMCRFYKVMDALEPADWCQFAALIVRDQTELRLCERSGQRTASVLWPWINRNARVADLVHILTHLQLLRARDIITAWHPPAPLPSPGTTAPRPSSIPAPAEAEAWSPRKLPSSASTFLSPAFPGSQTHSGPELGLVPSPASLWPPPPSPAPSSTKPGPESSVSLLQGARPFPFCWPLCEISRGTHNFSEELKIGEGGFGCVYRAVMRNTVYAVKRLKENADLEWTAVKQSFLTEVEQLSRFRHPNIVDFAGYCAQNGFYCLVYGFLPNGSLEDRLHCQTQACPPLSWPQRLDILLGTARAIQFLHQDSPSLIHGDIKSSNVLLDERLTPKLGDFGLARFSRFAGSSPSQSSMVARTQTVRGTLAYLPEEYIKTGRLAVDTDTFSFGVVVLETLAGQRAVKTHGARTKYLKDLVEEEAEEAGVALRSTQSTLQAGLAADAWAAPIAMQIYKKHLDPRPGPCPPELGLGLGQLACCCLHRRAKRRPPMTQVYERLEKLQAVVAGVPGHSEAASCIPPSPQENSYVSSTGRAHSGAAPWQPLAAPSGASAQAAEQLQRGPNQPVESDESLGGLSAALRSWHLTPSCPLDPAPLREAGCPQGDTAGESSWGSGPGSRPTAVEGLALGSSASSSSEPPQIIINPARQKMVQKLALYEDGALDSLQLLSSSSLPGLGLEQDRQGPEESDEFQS

Consider `CC(C)Nc1ccnc(Nc2cccc(-c3cccnc3)c2)n1` [Compound 5e, N^4-Isopropyl-N^2-(3-(pyridin-3-yl)phenyl)pyrimidine-2,4-diamine], for which the AUC turned out to be 0.183 µM·h in series [1] (setting [5]), 0.683 µM·h in series [1] (setting [6]) and 0.953 µM·h in series [1] (setting [7]). In addition, the Tmax in series [1] (setting [5]) turned out to be 4.98 min; in series [1] (setting [6]) it was 4.98 min; in series [1] (setting [7]), 15 min. Further, the Cmax in series [1] (female, C57BL/6, mouse, plasma, ip, 3 mg/kg, Cmax, mice) worked out at 327 nM; in series [1] (female, C57BL/6, mouse, plasma, ip, 5 mg/kg, Cmax, mice) it was 927 nM; in series [1] (female, C57BL/6, mouse, plasma, ip, 10 mg/kg, Cmax, mice), 1620 nM; in series [1] (mice, i.p., 3 mg/kg), 376 nM; in series [1] (mice, i.p., 10 mg/kg), 1650 nM. Moreover, the half-life is 13.8 min in series [1] (female, C57BL/6, mouse, plasma, ip, 3 mg/kg, T1/2, mice); 32.4 min in series [1] (female, C57BL/6, mouse, plasma, ip, 5 mg/kg, T1/2, mice); 60 min in series [1] (female, C57BL/6, mouse, plasma, ip, 10 mg/kg, T1/2, mice); 13.8 to 60 min in series [1] (female, C57BL/6, mouse, plasma, ip, 10 mg/kg, half-life, mice, across 3, 5 and 10 mg/kg). The Cl amounted to 845 mL/min/kg in series [1] (mice, i.p., 3 mg/kg); 397 mL/min/kg in series [1] (mice, i.p., 5 mg/kg); 552 mL/min/kg in series [1] (mice, i.p., 10 mg/kg). The Vz in series [1] (mice, i.p., 3 mg/kg) was 16.7 L/kg; in series [1] (mice, i.p., 5 mg/kg), 18.6 L/kg; in series [1] (mice, i.p., 10 mg/kg), 47.3 L/kg.
Turning to `c1cncc(-c2cccc(Nc3nccc(NC4CCCCC4)n3)c2)c1` [Compound 1, N^4-Cyclohexyl-N^2-(3-(pyridin-3-yl)phenyl)pyrimidine-2,4-diamine], the Kd in series [2] worked out at 1500 nM; in series [3], 1600 nM; in series [4], 1600 nM.

What is called AUC is the area under the concentration-time curve, a measure of exposure. A high value points to high exposure. Broadly, the Tmax is the time at which the peak concentration occurs. One may read the Cmax as the highest concentration seen after dosing. As a reminder, the half-life is the time in which the quantity being followed falls by half. A word on the Kd: it is the equilibrium constant for the complex coming apart. A low value points to a tighter complex.
